# Patent US8722719B2, “Amine compound and use for same” (Kureha Corporation, priority 2010, dated 2014)
# What was measured:
# [1] = test system: HIV-1 IIIB infected MT-4 cells; assay: anti-HIV activity test (MTT viable cell count); format: cell-based; settings: Human immunodeficiency virus 1, MT4, 120 h, MOI 0.01, 5 days, MTT method, read-out: EC50 (concentration at which cellular damage due to HIV infection is inhibited by 50%)
# Protocol: In Test Example 1, the amine compound according to the present invention was subjected to the anti-HIV activity test. HIV-1 IIIB infected MT-4 cells (3.0×10^4 cells/well, MOI (multiplicity of infection): 0.01) were added to a 96-well microtiter plate together with the test compound (compound 1, A, or B) at a different concentration immediately after infection. After culturing the cells at 37° C. for 5 days using a carbon dioxide incubator, the number of viable cells was measured by the MTT (tetrazolium) method ([…] et al., J. Virol. Method, 20, 309-321, 1988).
# [2] = oral absorption properties
# [3] = hydrolysis in serum (background finding of the inventors); format: in vitro ADME; settings: species not stated
Structure (SMILES),EC50 [1] [nM],oral absorption properties [2],hydrolysis in serum [3]
"CCCN(CCC)CCCCN(CCC(=O)OCCN(C)C)Cc1ccc(CN(Cc2ncc[nH]2)Cc2nccn2C)cc1 [Compound 1, 2-dimethylaminoethyl 3-[(4-dipropylaminobutyl)(4-{[(1H-imidazol-2-ylmethyl)(1-methyl-1H-imidazol-2-ylmethyl)amino]methyl}benzyl)amino]propionate]",3,,
"CCCN(CCC)CCCCN(CCC(=O)O)Cc1ccc(CN(Cc2ncc[nH]2)Cc2nccn2C)cc1 [Compound A, 3-[(4-dipropylaminobutyl)(4-{[(1H-imidazol-2-ylmethyl)(1-methyl-1H-imidazol-2-ylmethyl)amino]methyl}benzyl)amino]propionic acid]",3,poor oral absorption properties,
"CCCN(CCC)CCCCN(CCC(=O)OCC)Cc1ccc(CN(Cc2ncc[nH]2)Cc2nccn2C)cc1 [Compound B, ethyl 3-[(4-dipropylaminobutyl)(4-{[(1H-imidazol-2-ylmethyl)(1-methyl-1H-imidazol-2-ylmethyl)amino]methyl}benzyl)amino]propionate]",3,,hydrolyzed to only a small extent in serum
